Like-named read-outs stand apart in the source and are kept apart here. Where no end group is shown, it is not given here.
How the values were obtained:
[1] = system: stable CHF patients; assay type: in vivo, human; conditions: for Diastolic Blood Pressure: baseline 65 ± 10; for Diastolic Blood Pressure / Systolic Blood Pressure: with SOC; for Systolic Blood Pressure: baseline 119 ± 15
Method: VSDL in the form of a white lyophilised powder (synthesised using standard protein synthesis method by Auspep Pty Ltd, Parkville, VIC, Australia), stored in an ultra-low freezer (−80° C.), was reconstituted in a vial with 10 ml of 0.9% saline (preservative free) and aseptically transferred into a 20 ml syringe (that connects to a cannula) before use.
A first study was conducted with a cohort of eight (8) test adult patients, both male and female, with a history of stable, chronic congestive heart failure and moderate renal impairment that had been selected on the basis of the following Inclusion and Exclusion criteria:
All patients underwent existing standard of care (SOC) treatment for the condition for which they presented. These treatments were diuretic therapy (ie administration with furosemide or spironolactone) and an antihypertensive drug(s) (eg an Angiotensin Converting Enzyme (ACE) inhibitor, beta blocker agent and calcium channel blocker agent). […]

[2] = system: stable CHF patients; assay: Blood pressure during and after continuous sc VSDL infusion, Example 2; assay type: in vivo, human; conditions: for average drop in blood pressure, diastolic / average drop in blood pressure, systolic: during the 24 hour time period; for mean drop in blood pressure, diastolic / mean drop in blood pressure, systolic: throughout the 12 hour infusion period
Method: (§1) A second study was conducted with a population of eighteen (18) test adult CHF patients, both male and female, in order to further evaluate the improvement in renal and cardiac function in stable CHF patients given VSDL (by sc administration) in addition to standard of care (SOC) treatment.
(§2) Participants were selected on the basis of the Inclusion and Exclusion criteria given in Example 1. […] In addition, selected patients were required to have a plasma brain natriuretic peptide (BNP) concentration of ≥100 pg/mL and a GFR ≥25 mL/min and <70 mL/min as calculated by the Cockroft Gault calculation (ie moderate renal impairment). On the other hand, the presence of acute MI (ie as indicated by ST elevation and/or elevation of Troponin-T) or evidence of MI or other high risk acute coronary syndrome within the past 6 weeks, hypotension (ie systolic blood pressure (SBP) <90 mmHg), persistent and/or uncontrolled hypertension (SBP>180 mmHg), cardiogenic shock or any other clinical condition that would contraindicate administration of an agent with potent vasodilatory effects, excluded patients from participating in the study. Participants in this study also had standard exclusion criteria that accompany pulmonary artery (SG) catheterisation.
(§3) The study was an open-label, sequential group, continuous sc infusion study conducted at a single centre. Two steady-state concentration levels (Css) of VSDL were targeted, approximately 10 ng/mL (n=2 lead-in, and n=10, cohort 1) and 20 ng/mL (n=6, cohort 2). The two lead-in patients were treated with similar dose regimens to confirm that the measured plasma concentrations were in agreement with the targeted Css. Two patients from cohort 1 and all 6 patients from cohort 2 underwent pulmonary artery Swan-Ganz (SG) catheterisation to enable haemodynamic monitoring.
(§4) VSDL prepared as described in Example 1, was administered via sc 6 or 12 hour infusion into the lower abdomen at a maximum volume rate of 350 μL/hr (ie approximately 6 μL/min). The rate of infusion of VSDL for the targeted Css level of 10 ng/mL was either 900 μg/hr (0.3 mL/hr) for 12 hrs or a bimodal infusion of 900 μg/hr for 5 hrs followed by 550 μg/hr (0.18 mL/hr) for 7 hrs. The rate of infusion of VSDL for the targeted Css level of 20 ng/mL was bimodal; 1800 μg/hr (0.20 mL/hr) for 5 hrs followed by 1100 μg/hr (0.12 mL/hr) for 7 hrs (see WO 2014/138796). For the lead-in patients, the infusions were performed at 900 μg/hr for 6 hrs.
(§5) R Studio (version 4) and GraphPad Prism (GraphPad Software, version 6) were used for all statistical analyses. Statistically significant changes from base line for all parameters were tested using with linear mixed effects model or one-way repeated measures ANOVA with Bonferroni correction. A p value of 0.05 was set for statistically significant differences. All data are reported as mean±s.d or mean (95% CI).

[3] = clinical; parameters: species or system human; conditions: in vivo
[4] = system: stable CHF patients; assay: Urine output and fractional excretion of sodium with sc VSDL infusion, Example 2; assay type: in vivo, human
Method: as §1, §2, §3, §4, §5

[5] = system: patients showing either acute exacerbations of chronic CHF or ADCHF; conditions: cited from earlier work
[6] = lead-in patients, 900 μg/hr sc for 6 hours, up to 24 hours post infusion
[7] = patients with baseline blood pressures ≤105/60 mmHg, during the infusion

EVVPPQVLSEPNEEAGAALSPLPEVPPWTGEVSPAQR [VSDL]
Diastolic Blood Pressure ([1]; 10 ng/kg column): 64 ± 7 mmHg | Systolic Blood Pressure ([1]; 10 ng/kg column): 122 ± 10 mmHg | Diastolic Blood Pressure ([1]; 20 ng/kg column): 65 ± 6 mmHg | Systolic Blood Pressure ([1]; 20 ng/kg column): 115 ± 19 mmHg | symptomatic hypotension ([1]; human, in vivo, sc): none of these resulted in symptomatic hypotension | change in systolic and diastolic blood pressures ([1]; stable CHF patients, sc bolus VSDL with SOC, p < 0.05): significant drop | Diastolic Blood Pressure ([2]; 10 ng/ml cohort, 0.5-6 hs, baseline 61 ± 8): 64 ± 8 mmHg | Systolic Blood Pressure ([2]; 10 ng/ml cohort, 0.5-6 hs, baseline 116 ± 10): 121 ± 11 mmHg | Diastolic Blood Pressure ([2]; 10 ng/ml cohort, >6-12 hs, baseline 61 ± 8): 65 ± 7 mmHg | Systolic Blood Pressure ([2]; 10 ng/ml cohort, >6-12 hs, baseline 116 ± 10): 125 ± 10 mmHg | Diastolic Blood Pressure ([2]; 10 ng/ml cohort, >12-24 hs, baseline 61 ± 8): 62 ± 7 mmHg | Systolic Blood Pressure ([2]; 10 ng/ml cohort, >12-24 hs, baseline 116 ± 10): 118 ± 10 mmHg | average drop in blood pressure, diastolic ([2]; 10 ng/ml cohort): −5 mmHg | average drop in blood pressure, systolic ([2]; 10 ng/ml cohort): −8 mmHg | mean drop in blood pressure, diastolic ([2]; 10 ng/ml cohort): −6 mmHg | mean drop in blood pressure, systolic ([2]; 10 ng/ml cohort): −8 mmHg | Diastolic Blood Pressure ([2]; 20 ng/ml cohort, 0.5-6 hs, baseline 71 ± 12): 66 ± 6 mmHg | Systolic Blood Pressure ([2]; 20 ng/ml cohort, 0.5-6 hs, baseline 124 ± 21): 116 ± 17 mmHg | Diastolic Blood Pressure ([2]; 20 ng/ml cohort, >6-12 hs, baseline 71 ± 12): 67 ± 6 mmHg | Systolic Blood Pressure ([2]; 20 ng/ml cohort, >6-12 hs, baseline 124 ± 21): 118 ± 20 mmHg | Diastolic Blood Pressure ([2]; 20 ng/ml cohort, >12-24 hs, baseline 71 ± 12): 64 ± 6 mmHg | Systolic Blood Pressure ([2]; 20 ng/ml cohort, >12-24 hs, baseline 124 ± 21): 116 ± 21 mmHg | average drop in blood pressure, diastolic ([2]; 20 ng/ml cohort): −8 mmHg | average drop in blood pressure, systolic ([2]; 20 ng/ml cohort): −13 mmHg | mean drop in blood pressure, diastolic ([2]; 20 ng/ml cohort): −7 mmHg | mean drop in blood pressure, systolic ([2]; 20 ng/ml cohort): −14 mmHg | drops in mean blood pressures from baseline, based on post infusion time ([2]; all VSDL-treated patients, p=0.4): no significant drops | systolic and diastolic blood pressures, regression on concentration of VSDL ([2]; at higher VSDL concentrations, p=0.005, FIGS. 5A and B): significant decrease | change in blood pressure ([2]; lead-in patients, 900 μg/hr sc for 6 hours): no significant change | mean diastolic blood pressure [2, 6]: 66±3 mmHg | mean systolic blood pressure [2, 6]: 114±6 mmHg | Diastolic Blood Pressure ([2]; patients with BP ≤ 105 mmHg, 0.5-6 hs, baseline 57 ± 6): 61 ± 7 mmHg | Systolic Blood Pressure ([2]; patients with BP ≤ 105 mmHg, 0.5-6 hs, baseline 97 ± 8): 106 ± 17 mmHg | Diastolic Blood Pressure ([2]; patients with BP ≤ 105 mmHg, >6-12 hs, baseline 57 ± 6): 64 ± 8 mmHg | Systolic Blood Pressure ([2]; patients with BP ≤ 105 mmHg, >6-12 hs, baseline 97 ± 8): 113 ± 25 mmHg | Diastolic Blood Pressure ([2]; patients with BP ≤ 105 mmHg, >12-24 hs, baseline 57 ± 6): 62 ± 6 mmHg | Systolic Blood Pressure ([2]; patients with BP ≤ 105 mmHg, >12-24 hs, baseline 97 ± 8): 109 ± 20 mmHg | drop in blood pressures ([2]; patients with baseline blood pressures ≤105/60 mmHg): no significant drop | average blood pressure drop, diastolic [2, 7]: −3 mmHg | average blood pressure drop, systolic [2, 7]: −4 mmHg | bioavailability ([3]; both sexes, human, sc): 19.2% | CL Maximum Elimination rate, Pop value ([3]; human, sc): 26.8 L/h | F Bioavailability, Pop value ([3]; human, sc): 26.894% | ETASHARE Random effect scalinmg factor, Pop value [3]: 1.000 ratio | RUVADDIV Residual Error (Additive, I.V.), Pop value ([3]; iv): 0.248 ng/mL | RUVCVIV Residual Error (Proportional, I.V.), Pop value ([3]; iv): 0.336 ratio | FVOL Infused volume on F, Pop value ([3]; sc): 1.590 ratio | KA Absorption rate constant, Pop value ([3]; sc): 0.625 h⁻¹ | LGT Logit F value, Pop value ([3]; sc): −1.00 | RUVADDSC Residual Error (Additive, S.C.), Pop value ([3]; sc): 0.070 ng/mL | RUVCVSC Residual Error (Proportional, S.C.), Pop value ([3]; sc): 0.259 Ratio | V2 S.C. bolus V scaling factor, Pop value ([3]; sc): 1.62 ratio | V3 S.C. infusion V scaling factor, Pop value ([3]; sc): 3.65 ratio | V Central volume, Pop value ([3]; sc): 13.20 L | mean urine output ([4]; 10 ng/ml cohort): 2898 ± 334 mL | FENa (fractional excretion of sodium) ([4]; 10 ng/ml cohort, during infusion, baseline 2.2±0.3%, not statistically significant): 3.3±0.8% | FENa (fractional excretion of sodium) ([4]; 10 ng/ml cohort, post infusion, baseline 2.2±0.3%): 2.3±0.3% | mean urine output ([4]; 20 ng/ml cohort): 3028 ± 301 mL | FENa (fractional excretion of sodium) ([4]; 20 ng/ml cohort, during infusion, baseline 1.6±0.3%): 2.4±0.8% | FENa (fractional excretion of sodium) ([4]; 20 ng/ml cohort, post infusion, baseline 1.6±0.3%): 1.6±0.4% | fluid output (urine volumes from baseline) ([4]; patients treated with VSDL plus SOC): increased | patients with urine volumes above 3 liters/day ([4]; pooled 10 and 20 ng/ml patients, FIG. 2): more than 50% | side-effects ([5]; in vivo, iv): without side-effects | outcomes (eg increased cardiac index, drops in pulmonary capillary wedge pressure and blood pressure) ([5]; iv infusion, even with very low doses, WO 2012/019237): improved outcomes

Source: US10004754B2, “ANP fragment adjuvant therapy to standard of care (SOC) diuretic treatment” (MADELEINE PHARMACEUTICALS PTY LTD, priority 2014, dated 2018)
